In test [1] the target is human full length PIK3CA Wild-type (p110α/p85α complex) (Homo sapiens (Human), UniProt P42336). The experiment in a line: PI3K-Alpha kinase (PIK3CA) activity, wild-type, Transcreener ADP2 FI assay. The note with it: PI3K-α (PIK3CA) wild-type, biochemical. On the procedure: (§1) PI3K-Alpha kinase (PIK3CA) activity, wild-type and H1047R mutant and determining IC50 values for inhibitors
(§2) Recombinant, catalytically active human full length PIK3KA Wild-type and H1047R mutant were purchased as 1:1 complex of N-terminal 6×his tagged p110<(catalytic) and untagged p85<(regulatory subunit) from EMD Millipore Sigma (cat. no. 14-602M and 14-792M, respectively). The enzyme stocks were diluted to 5× stocks in buffer (20 mM HEPES pH 7.4, 100 mM NaCl, 0.5 mM EGTA, 0.01% triton-x-100) just before use. PIP2diC8 (Avanti Polar Lipids Inc., cat. no. 850185) or phosphoinositol-4,5-bisphosphate with phosphoserine (PIP2:PS) membrane (Thermo Fisher Scientific, cat. no. PV5100) was used as lipid substrates. PIP2diC8 lyophilized powder and PIP2:PS (1:19) membrane stock (1 mM in PIP2) were separately dissolved in milliQ water to a concentration of 250 uM and stored in −20° C. 10 mM stocks of compounds were serially diluted (3×) in neat DMSO and stored in a dessicator at room temperature. 5× compound stocks in 25% DMSO were prepared fresh from neat DMSO stocks. Wild-type (WT) and H1047R mutant protein, along with buffer components (except ATP), were incubated with or without compound at 27° C. for 1h. After incubation, the reaction was initiated by the addition of 5 uL of 125 uM ATP. A typical assay mixture (25 uL) comprised 40 mM HEPES buffer, pH 7.4, 25 mM MgCl2, 0.01% v/v triton-X-100, 5% v/v DMSO, 20 mM NaCl, 1-5 nM wt or H1047R, 25 uM ATP, and 50 uM PTP2diC8 or PTP2 in membrane. The reaction was allowed to proceed until about […] (2.5 uM ADP) after which time, 10 uL of reaction mixture was quenched with 25 uL of transcreener reagent (Transcreener ADP2 FI assay kit, BellBrook labs, Cat. No. 3013). The contents were incubated at rt for 1h and fluorescence was measured using a plate reader (Paradigm, Molecular Devices). The same assay was also run at pH 6.0 or 6.4 using MOPS buffer (Fisher BioReagents, CAS 1132-61-2). A calibration curve was generated under identical buffer conditions with varying ADP amounts. Using that, the observed fluorescence was converted to uM ADP. A plot between [ADP] and log[I] yielded the dose-response curves that enabled the calculation of IC50s.

Test [2] has as its target human full length PIK3CA H1047R mutant (p110α/p85α complex) (Homo sapiens (Human), UniProt P42336, H1047R). As to the kind of experiment: PI3K-Alpha kinase (PIK3CA) activity, H1047R mutant, Transcreener ADP2 FI assay. The note with it: PI3K-α (PIK3CA) H1047R mutant, biochemical. On the procedure: as §1, §2

human full length PIK3CA Wild-type (p110α/p85α complex), sequence (P42336 whole entry): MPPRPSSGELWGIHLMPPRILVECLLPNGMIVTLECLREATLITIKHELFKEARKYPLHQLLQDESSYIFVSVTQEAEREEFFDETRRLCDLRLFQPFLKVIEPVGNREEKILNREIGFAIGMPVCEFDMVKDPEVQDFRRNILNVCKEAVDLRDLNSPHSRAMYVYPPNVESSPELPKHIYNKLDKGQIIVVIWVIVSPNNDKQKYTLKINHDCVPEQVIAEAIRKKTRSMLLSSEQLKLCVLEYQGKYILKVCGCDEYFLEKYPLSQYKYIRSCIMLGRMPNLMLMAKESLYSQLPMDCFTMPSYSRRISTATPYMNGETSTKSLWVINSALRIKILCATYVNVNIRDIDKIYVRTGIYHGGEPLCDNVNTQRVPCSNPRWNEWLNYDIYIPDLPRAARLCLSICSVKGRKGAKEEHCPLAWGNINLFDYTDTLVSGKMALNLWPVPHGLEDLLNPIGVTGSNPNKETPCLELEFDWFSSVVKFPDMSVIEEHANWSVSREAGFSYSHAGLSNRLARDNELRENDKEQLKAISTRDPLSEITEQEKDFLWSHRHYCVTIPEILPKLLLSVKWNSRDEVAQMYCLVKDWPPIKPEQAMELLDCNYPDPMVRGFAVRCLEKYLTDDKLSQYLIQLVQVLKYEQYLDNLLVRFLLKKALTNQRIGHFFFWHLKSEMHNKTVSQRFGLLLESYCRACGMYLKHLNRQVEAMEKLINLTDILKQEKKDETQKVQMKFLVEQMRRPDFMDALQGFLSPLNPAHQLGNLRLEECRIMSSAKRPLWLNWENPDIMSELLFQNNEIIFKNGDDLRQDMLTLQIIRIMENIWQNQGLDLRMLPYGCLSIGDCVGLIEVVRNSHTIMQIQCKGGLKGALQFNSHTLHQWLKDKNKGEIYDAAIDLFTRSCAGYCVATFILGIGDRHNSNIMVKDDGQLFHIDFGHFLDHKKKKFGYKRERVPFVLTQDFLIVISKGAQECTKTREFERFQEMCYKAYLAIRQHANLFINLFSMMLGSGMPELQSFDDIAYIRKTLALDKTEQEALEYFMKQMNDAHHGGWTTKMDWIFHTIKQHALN
human full length PIK3CA Wild-type (p110α/p85α complex), sequence (P27986 whole entry partner): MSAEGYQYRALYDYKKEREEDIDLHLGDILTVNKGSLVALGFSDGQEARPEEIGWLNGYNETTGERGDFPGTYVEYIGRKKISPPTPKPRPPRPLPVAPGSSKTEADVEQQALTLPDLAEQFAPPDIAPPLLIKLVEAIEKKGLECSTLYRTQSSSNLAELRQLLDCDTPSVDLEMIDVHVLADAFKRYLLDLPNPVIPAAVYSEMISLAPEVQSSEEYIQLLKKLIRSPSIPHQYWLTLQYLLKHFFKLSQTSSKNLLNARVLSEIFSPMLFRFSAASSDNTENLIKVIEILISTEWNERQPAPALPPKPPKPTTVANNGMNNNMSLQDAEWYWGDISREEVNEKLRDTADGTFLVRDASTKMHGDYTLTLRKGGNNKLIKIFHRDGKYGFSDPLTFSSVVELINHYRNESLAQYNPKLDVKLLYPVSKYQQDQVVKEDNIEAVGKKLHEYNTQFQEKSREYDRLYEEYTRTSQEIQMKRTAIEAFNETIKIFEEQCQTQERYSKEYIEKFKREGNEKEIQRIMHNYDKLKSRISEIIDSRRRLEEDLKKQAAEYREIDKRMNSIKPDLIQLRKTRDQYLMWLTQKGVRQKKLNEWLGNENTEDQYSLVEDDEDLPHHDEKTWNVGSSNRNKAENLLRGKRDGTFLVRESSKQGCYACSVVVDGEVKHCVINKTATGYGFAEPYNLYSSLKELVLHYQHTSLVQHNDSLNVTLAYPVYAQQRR
human full length PIK3CA H1047R mutant (p110α/p85α complex), sequence (P42336 whole entry H1047R): as the sequence (P42336 whole entry) above, with H1047R counted along it
human full length PIK3CA H1047R mutant (p110α/p85α complex), sequence (P27986 whole entry partner): as the sequence (P27986 whole entry partner) above

Regarding `Cc1cc(C(C)Nc2ccccc2C(=O)O)c2oc(N3CCC(C)(C)CC3)c(C3CC3)c(=O)c2c1` (single isomer, unassigned) [Example 51, 2-[1-[3-Cyclopropyl-2-(4,4-dimethyl-1-piperidyl)-6-methyl-4-oxo-chromen-8-yl]ethyalmino]benzoic acid], the results for the half-maximal inhibitory concentration (IC50) in test [1] and in test [2] were 1000 to 5000 nM and < 500 nM, respectively.
The matching figures for `Cc1cc(C(C)Nc2ccccc2C(=O)O)c2oc(N3CCC(C)(C)CC3)c(-c3cnoc3)c(=O)c2c1` (single isomer, unassigned) [Example 53]: 500 to 1000 nM and < 500 nM.
The matching figures for `Cc1cc(C(C)Nc2ccccc2C(=O)O)c2oc(N3CCC(C)(C)CC3)c(-c3cnoc3)c(=O)c2c1` (single isomer, unassigned) [Example 54, 2-[1-[2-(4,4-Dimethyl-1-piperidyl)-3-isoxazol-4-yl-6-methyl-4-oxo-chromen-8-yl]ethylamino]benzoic acid]: > 10000 nM and > 10000 nM.
The matching figures for `COC12CC(C1)N(c1cc(=O)c3cc(C)cc(C(C)Nc4ccccc4C(=O)O)c3o1)C2` (single isomer, unassigned) [Example 111, 2-[1-[2-(4-Methoxy-2-azabicyclo[2.1.1]hexan-2-yl)-6-methyl-4-oxo-chromen-8-yl]ethylamino]benzoic acid]: > 10000 nM and > 10000 nM.
Consider `COC12CC(C1)N(c1cc(=O)c3cc(C)cc(C(C)Nc4ccccc4C(=O)O)c3o1)C2` (single isomer, unassigned) [Example 112, 2-[1-[2-(4-Methoxy-2-azabicyclo[2.1.1]hexan-2-yl)-6-methyl-4-oxo-chromen-8-yl]ethylamino]benzoic acid], for which the IC50 in test [1] lay within 1000 to 5000 nM; in test [2], 500 to 1000 nM.
On the same counts, the results for `Cc1cc(C(C)Nc2ccccc2C(=O)O)c2oc(N3Cc4ccc(F)cc4C3)cc(=O)c2c1` (single isomer, unassigned) [Example 123, 2-[1-[2-(5-Fluoroisoindolin-2-yl)-6-methyl-4-oxo-chromen-8-yl]ethylamino]benzoic acid] are 500 to 1000 nM and < 500 nM.
The matching figures for `Cc1cc(C(C)Nc2ccccc2C(=O)O)c2oc(N3Cc4ccc(F)cc4C3)cc(=O)c2c1` (single isomer, unassigned) [Example 124, 2-[1-[2-(5-Fluoroisoindolin-2-yl)-6-methyl-4-oxo-chromen-8-yl]ethylamino]benzoic acid]: > 10000 nM and 5000 to 10000 nM.
Take `Cc1cc(C(C)Nc2ccccc2C(=O)O)c2oc(N3CCC(c4ccncc4)C3)cc(=O)c2c1` (single isomer, unassigned) [Example 194, 2-[1-[6-Methyl-4-oxo-2-[3-(4-pyridyl)pyrrolidin-1-yl]chromen-8-yl]ethylamino]benzoic acid 2,2,2-trifluoroacetic acid]: the figures for the IC50 in test [1] and in test [2] were > 10000 nM and 500 to 1000 nM, respectively.
The matching figures for `Cc1cc(C(C)Nc2ccccc2C(=O)O)c2oc(N3CC4(CCN4c4ccccc4)C3)cc(=O)c2c1` (single isomer, unassigned) [Example 203, 2-[1-[6-Methyl-4-oxo-2-(1-phenyl-1,6-diazaspiro[3.3]heptan-6-yl)chromen-8-yl]ethylamino]benzoic acid 2,2,2-trifluoroacetic acid]: 1000 to 5000 nM and < 500 nM.
On the same counts, the results for `CCC1(c2ccccc2)CN(c2cc(=O)c3cc(C)cc(C(C)Nc4ccccc4C(=O)O)c3o2)C1` (single isomer, unassigned) [Example 212, 2-[1-[2-(3-Ethyl-3-phenyl-azetidin-1-yl)-6-methyl-4-oxo-chromen-8-yl]ethylamino]benzoic acid 2,2,2-trifluoroacetic acid] are 500 to 1000 nM and < 500 nM.

The IC50 is the concentration at which inhibition is half-maximal. Low values mean greater potency, high ones weaker potency.

The values are drawn from US11649227B2, “Allosteric chromenone inhibitors of phosphoinositide 3-kinase (PI3K) for the treatment of disease” (Petra Pharma Corporation, priority 2020, dated 2023).
